Assay results as given in ChEMBL document CHEMBL1201862, “PubChem BioAssay data set” (2004).
Active and inactive are the calls of the source.

Experiments:
Kallikrein-7 = Kallikrein-7 (Homo sapiens, UniProt P49862); assay: Fluorescence Intensity-based biochemical primary high throughput dose response assay to identify activators of kallikrein-7 (K7) zymogen.
[1] = biological target: 1-phosphatidylinositol 4,5-bisphosphate phosphodiesterase gamma-1 (Homo sapiens, UniProt P19174); assay: Counterscreen for inhibitors of phospholipase C isozymes (PLC-B3): Fluorescence-based biochemical high throughput dose response assay to identify inhibitors of phospholipase C isozymes (PLC-gamma1).
Sequence of 1-phosphatidylinositol 4,5-bisphosphate phosphodiesterase gamma-1 (P19174 whole entry): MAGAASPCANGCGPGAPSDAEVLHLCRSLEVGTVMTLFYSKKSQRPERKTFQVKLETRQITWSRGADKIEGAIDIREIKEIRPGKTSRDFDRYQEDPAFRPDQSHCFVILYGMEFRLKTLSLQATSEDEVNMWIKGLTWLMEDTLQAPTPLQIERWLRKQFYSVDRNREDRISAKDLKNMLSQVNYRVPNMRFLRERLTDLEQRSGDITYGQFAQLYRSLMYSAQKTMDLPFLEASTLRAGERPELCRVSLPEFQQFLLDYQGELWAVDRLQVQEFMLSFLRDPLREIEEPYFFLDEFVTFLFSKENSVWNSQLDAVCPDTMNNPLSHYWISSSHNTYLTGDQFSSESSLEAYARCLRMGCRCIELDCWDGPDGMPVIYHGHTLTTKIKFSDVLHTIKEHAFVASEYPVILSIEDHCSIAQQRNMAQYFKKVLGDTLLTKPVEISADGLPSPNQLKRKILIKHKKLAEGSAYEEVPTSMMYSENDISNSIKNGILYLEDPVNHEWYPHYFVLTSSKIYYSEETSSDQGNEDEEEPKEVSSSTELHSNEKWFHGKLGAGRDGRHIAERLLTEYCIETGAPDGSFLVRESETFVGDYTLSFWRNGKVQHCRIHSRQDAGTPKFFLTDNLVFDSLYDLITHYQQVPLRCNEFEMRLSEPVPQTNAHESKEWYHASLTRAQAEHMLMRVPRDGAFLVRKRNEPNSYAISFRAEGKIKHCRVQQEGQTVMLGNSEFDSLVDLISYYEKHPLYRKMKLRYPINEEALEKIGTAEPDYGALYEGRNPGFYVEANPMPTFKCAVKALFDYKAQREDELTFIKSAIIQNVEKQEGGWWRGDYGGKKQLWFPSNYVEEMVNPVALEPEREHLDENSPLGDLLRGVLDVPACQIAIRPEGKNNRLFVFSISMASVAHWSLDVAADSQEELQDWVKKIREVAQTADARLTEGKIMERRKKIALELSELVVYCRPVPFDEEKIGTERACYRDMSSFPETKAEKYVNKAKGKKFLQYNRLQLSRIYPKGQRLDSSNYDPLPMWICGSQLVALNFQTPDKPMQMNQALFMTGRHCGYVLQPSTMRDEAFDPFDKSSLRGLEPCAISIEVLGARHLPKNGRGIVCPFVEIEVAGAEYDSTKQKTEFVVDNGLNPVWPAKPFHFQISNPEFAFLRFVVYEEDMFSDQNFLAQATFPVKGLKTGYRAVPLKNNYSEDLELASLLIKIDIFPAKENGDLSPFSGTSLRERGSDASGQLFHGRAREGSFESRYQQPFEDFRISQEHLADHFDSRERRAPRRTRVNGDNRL

[2] = biological target: 1-phosphatidylinositol 4,5-bisphosphate phosphodiesterase beta-3 (Homo sapiens, UniProt Q01970); assay: Fluorescence-based biochemical high throughput dose response assay to identify inhibitors of phospholipase C isozymes (PLC-B3).
Sequence of 1-phosphatidylinositol 4,5-bisphosphate phosphodiesterase beta-3 (Q01970 whole entry): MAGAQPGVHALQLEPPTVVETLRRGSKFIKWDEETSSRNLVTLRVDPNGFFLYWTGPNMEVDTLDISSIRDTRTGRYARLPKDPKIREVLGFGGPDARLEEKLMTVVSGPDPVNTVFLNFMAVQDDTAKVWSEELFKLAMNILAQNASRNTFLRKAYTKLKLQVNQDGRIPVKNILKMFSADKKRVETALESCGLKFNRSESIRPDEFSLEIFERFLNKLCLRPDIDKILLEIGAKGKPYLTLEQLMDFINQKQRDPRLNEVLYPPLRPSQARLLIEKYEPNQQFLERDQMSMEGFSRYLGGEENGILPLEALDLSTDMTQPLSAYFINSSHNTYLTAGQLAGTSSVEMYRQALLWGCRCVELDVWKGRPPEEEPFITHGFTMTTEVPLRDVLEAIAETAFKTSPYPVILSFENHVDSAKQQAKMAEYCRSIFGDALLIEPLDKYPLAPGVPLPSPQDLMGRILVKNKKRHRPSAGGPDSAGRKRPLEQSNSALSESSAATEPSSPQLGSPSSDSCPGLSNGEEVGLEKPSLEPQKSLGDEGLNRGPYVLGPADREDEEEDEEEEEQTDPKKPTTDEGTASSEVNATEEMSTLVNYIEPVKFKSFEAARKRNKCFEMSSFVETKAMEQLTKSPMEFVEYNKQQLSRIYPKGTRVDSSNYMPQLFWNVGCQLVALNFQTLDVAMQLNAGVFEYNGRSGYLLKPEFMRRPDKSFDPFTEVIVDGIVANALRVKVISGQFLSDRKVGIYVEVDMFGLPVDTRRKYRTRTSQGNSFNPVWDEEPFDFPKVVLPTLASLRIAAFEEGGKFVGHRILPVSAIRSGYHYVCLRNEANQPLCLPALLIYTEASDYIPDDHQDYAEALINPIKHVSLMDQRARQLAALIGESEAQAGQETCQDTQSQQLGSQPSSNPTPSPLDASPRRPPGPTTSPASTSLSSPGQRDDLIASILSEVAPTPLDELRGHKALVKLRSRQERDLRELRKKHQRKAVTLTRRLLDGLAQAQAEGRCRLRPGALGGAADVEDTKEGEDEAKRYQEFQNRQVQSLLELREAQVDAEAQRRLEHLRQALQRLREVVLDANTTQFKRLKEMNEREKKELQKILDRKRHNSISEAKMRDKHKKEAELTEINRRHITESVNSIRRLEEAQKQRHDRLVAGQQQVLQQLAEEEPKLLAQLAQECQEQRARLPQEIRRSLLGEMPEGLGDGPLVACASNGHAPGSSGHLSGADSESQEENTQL

[3] = viability loss in HeLa cells – cytotoxicity control for MgcRacGAP inhibitor project, dose response (AID 624300); assay type: functional
[4] = biological target: T1, DNA repair protein RAD52 homolog (Homo sapiens, UniProt P43351); assay type: functional, biochemical
T1 sequence (P43351 whole entry): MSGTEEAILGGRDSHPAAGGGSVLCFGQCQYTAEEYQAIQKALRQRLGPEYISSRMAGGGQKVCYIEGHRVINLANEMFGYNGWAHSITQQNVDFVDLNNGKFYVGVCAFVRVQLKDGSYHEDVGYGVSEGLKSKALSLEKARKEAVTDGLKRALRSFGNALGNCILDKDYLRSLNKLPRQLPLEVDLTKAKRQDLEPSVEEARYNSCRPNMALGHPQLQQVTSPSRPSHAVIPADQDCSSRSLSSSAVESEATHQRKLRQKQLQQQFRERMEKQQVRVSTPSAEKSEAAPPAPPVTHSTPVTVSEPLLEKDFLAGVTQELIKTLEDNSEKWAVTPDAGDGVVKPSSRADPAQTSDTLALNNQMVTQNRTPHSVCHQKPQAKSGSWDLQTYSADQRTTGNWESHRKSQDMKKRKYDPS

[5] = biological target: T2, Histone-lysine N-methyltransferase NSD2 (Homo sapiens, UniProt O96028); assay type: biochemical
T2 sequence (O96028 whole entry): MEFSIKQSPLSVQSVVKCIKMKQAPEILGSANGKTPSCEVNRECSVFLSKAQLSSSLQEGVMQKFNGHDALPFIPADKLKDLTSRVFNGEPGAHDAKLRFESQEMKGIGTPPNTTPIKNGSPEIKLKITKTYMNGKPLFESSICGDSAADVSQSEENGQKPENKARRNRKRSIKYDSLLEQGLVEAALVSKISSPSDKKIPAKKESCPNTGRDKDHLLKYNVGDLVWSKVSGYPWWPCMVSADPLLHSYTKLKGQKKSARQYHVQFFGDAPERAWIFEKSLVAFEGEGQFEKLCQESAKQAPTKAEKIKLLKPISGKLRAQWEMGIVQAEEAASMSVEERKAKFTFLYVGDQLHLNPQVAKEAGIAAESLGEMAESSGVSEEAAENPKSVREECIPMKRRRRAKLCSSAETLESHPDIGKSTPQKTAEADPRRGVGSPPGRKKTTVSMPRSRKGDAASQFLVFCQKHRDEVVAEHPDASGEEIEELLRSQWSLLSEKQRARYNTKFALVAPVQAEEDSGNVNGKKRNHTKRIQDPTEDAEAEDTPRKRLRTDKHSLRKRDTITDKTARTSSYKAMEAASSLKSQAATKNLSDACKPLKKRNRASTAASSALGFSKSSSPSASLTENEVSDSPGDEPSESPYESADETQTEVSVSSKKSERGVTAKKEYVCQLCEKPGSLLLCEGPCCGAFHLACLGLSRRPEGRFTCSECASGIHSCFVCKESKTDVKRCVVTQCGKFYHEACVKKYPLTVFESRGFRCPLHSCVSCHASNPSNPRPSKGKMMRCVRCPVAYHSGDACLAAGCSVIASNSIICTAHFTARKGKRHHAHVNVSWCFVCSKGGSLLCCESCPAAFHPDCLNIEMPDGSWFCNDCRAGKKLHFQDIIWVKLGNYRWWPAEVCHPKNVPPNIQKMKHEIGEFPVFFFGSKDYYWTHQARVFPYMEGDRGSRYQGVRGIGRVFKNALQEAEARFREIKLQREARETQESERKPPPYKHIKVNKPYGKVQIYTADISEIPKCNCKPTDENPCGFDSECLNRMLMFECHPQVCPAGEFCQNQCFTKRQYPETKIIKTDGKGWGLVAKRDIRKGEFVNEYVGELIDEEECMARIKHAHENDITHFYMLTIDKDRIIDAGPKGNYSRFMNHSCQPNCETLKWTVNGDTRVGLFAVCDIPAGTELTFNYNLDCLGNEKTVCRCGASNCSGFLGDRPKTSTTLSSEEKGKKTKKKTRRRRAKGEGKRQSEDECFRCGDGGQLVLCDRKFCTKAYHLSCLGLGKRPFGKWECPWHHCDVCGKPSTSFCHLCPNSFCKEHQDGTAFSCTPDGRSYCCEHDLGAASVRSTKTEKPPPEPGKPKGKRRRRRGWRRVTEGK

Nonstructural protein 1 = Nonstructural protein 1 (Influenza A virus, UniProt Q194T2); assay type: functional, Influenza A virus (A/California/07/2009(H1N1))
Sequence of Nonstructural protein 1 (Q194T2 whole entry): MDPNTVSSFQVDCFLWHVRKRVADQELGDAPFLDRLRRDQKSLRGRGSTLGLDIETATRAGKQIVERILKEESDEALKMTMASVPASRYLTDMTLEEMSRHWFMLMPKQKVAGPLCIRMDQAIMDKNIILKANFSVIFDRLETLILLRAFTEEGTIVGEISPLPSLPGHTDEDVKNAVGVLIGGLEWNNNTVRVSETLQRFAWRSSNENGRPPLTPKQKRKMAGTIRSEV

[6] = biological target: T3, Rac GTPase-activating protein 1 (Homo sapiens, UniProt Q9H0H5); assay: blockers of MgcRacGAP-driven Rac1 GTP hydrolysis – biochemical, ADP Hunter fluorescence, primary and confirmatory, confirmation (AID 624330); assay type: functional
T3 sequence (Q9H0H5 whole entry): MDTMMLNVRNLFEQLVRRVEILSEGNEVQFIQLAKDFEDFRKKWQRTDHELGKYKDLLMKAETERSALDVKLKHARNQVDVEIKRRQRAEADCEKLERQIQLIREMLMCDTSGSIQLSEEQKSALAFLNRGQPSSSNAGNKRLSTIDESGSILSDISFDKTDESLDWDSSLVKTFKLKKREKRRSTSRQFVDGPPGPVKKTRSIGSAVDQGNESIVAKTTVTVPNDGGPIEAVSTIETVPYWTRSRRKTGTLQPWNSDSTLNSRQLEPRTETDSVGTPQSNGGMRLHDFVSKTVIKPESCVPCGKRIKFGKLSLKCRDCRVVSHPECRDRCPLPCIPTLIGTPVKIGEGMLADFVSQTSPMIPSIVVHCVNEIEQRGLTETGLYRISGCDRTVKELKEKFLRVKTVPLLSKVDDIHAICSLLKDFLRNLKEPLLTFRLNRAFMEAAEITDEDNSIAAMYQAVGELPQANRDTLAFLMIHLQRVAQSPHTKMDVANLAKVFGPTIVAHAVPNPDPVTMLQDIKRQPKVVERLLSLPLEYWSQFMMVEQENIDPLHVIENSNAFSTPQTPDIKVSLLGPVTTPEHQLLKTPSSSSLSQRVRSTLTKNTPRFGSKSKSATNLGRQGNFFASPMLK

[7] = biological target: Matrix metalloproteinase-14 (Homo sapiens, UniProt P50281); assay: Dose Response confirmation of uHTS hits for a small molecule inhibitors of MT1-MMP activation in a fluorescence assay set 1.; assay type: functional
Galanin receptor type 3 = biological target: T4, Galanin receptor type 3 (Homo sapiens, UniProt O60755); assay: Fluorescence-based cell-based primary high throughput dose response assay to identify antagonists of the Galanin Receptor 3 (GalR3).; assay type: functional
T4 sequence (O60755 whole entry): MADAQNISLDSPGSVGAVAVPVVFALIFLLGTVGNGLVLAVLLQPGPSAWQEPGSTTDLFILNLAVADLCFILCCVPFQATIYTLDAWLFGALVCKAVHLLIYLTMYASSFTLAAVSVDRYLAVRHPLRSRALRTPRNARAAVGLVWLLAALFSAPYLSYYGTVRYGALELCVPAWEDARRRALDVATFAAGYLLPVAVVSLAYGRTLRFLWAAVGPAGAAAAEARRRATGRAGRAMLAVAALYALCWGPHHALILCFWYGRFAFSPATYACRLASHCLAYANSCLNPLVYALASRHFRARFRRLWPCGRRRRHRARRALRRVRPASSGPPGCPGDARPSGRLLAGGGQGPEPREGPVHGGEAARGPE

[8] = HGIII-sPLA2 enzyme inhibition potency – biochemical, QFRET, IC50, dose response (AID 743457);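 further: green fluorescence rise as the enzyme cleaves BODIPY PC-A2 in liposomes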
cells = assay type: functional, cell-based; conditions: HEK-CNG
[9] = reduction of Shn3 3'UTR-driven luciferase in osteoblasts – cell-based, Clone20 osteoblasts, firefly luciferase, cherry-picked, dose response (AID 624132); assay type: functional;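 further: firefly luciferase luminescence from reporter carrying the Shn3 3'UTR in osteoblasts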
[10] = non-specific 3'UTR reporter inhibition in Clone20-Shn3RL – cell-based, Renilla luciferase, cherry-picked, counter-screen for Shn3 inhibitor project, dose response (AID 624133); assay type: functional
[11] = biological target: COUP transcription factor 2 (Homo sapiens, UniProt P24468); assay: Luminescence-based cell-based high throughput dose response assay to identify inhibitors of COUP-TFII (NR2F2).; assay type: functional;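 further: HEK293 cells transiently cotransfected with COUP-TFII expression vector and reporter; luciferase reporter luminescence driven by COUP-TFII from the pX2-168 reporter plasmid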
Sequence of COUP transcription factor 2 (P24468 whole entry): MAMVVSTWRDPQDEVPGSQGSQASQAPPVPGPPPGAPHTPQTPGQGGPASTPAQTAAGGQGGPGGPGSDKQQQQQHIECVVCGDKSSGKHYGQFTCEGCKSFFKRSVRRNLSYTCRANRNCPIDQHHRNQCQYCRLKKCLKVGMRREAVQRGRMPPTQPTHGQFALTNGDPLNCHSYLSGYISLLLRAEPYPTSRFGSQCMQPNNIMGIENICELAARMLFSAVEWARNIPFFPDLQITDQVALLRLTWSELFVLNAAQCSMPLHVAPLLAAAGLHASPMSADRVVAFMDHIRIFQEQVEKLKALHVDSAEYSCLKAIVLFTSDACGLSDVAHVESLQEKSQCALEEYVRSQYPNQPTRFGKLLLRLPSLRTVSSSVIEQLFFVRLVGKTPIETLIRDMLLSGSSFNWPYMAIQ

[12] = loss of viability in HepG2 cells – cell-based, CellTiter-Glo, cherry-picked, cytotoxicity control for Shn3 inhibitor project, dose response (AID 624134); assay type: functional
[13] = general mammalian cell viability loss – activator set, cherry-pick, cytotoxicity control for miR-122 modulator project, dose response (AID 720690); assay type: functional, cell-based;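 further: HEK293T human cells scored for general mammalian cytotoxicity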
Melanocortin receptor 4 = Melanocortin receptor 4 (Homo sapiens, UniProt P32245); assay type: functional, cell-based;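 further: Cell-based assay with luminescence read-out, confirmatory dose-response testing for agonist activity of biased ligands at MC4R; human U2OS cells with tagged receptor and beta-arrestin; potency of agonists that increase receptor coupling to beta-arrestin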
Sequence of Melanocortin receptor 4 (P32245 whole entry): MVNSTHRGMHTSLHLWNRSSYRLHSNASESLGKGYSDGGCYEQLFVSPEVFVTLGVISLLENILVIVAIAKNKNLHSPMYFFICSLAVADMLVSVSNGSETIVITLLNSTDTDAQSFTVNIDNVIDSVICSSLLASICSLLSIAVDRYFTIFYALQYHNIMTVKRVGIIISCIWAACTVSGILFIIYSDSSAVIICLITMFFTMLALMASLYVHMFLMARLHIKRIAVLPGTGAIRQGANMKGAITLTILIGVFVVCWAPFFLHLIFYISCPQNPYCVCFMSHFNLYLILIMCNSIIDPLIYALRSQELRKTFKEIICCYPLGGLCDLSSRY

[14] = general mammalian cell viability loss – inhibitor set, cherry-pick, set 2, cytotoxicity control for miR-122 modulator project, dose response (AID 720697); assay type: functional, cell-based
[15] = activation of miR-122 Renilla sensor silencing – cell-based, Huh7 psiCHECK-miR122, Renilla luciferase, cherry-picked, dose response (AID 651956); assay type: functional;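 further: huh7 hepatoma cells stably carrying a psiCHECK-2 miR-122 sensor plasmid; renilla luciferase signal reporting endogenous miR-122 activity after 48 h compound exposure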
Paired box protein Pax-8 = Paired box protein Pax-8 (Homo sapiens, UniProt Q06710); assay: PAX8 transcriptional activity inhibition in RMG-I – RMG-I cells, luciferase, cherry-pick, dose response (AID 687027); assay type: functional, cell-based;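 further: luciferase reporter driven by Pax8 target thyroperoxidase promoter measured by SteadyGlo luminescence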
Sequence of Paired box protein Pax-8 (Q06710 whole entry): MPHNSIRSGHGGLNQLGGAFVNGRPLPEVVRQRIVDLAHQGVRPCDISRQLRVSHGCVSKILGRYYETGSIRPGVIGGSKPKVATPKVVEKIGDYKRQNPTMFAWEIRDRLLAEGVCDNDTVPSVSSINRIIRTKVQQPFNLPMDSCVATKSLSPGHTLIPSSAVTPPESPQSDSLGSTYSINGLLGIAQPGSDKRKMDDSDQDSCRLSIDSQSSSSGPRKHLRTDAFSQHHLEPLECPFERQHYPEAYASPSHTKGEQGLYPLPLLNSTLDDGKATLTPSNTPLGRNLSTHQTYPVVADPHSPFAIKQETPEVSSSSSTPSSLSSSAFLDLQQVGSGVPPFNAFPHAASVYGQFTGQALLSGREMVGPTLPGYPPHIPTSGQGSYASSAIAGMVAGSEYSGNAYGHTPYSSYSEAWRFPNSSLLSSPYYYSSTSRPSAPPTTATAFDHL

[16] = toxicity toward immortalized ovarian surface epithelium – cell-based, plate reader, dry powder samples, cytotoxicity control for PAX8 inhibitor project, dose response (AID 743045); assay type: functional
[17] = OVCAR8 cell viability loss – plate reader, dry powder samples, PAX8 project, dose response (AID 743197); assay type: functional, cell-based; conditions: OVCAR-8
[18] = OVCAR-3 cell viability loss – plate reader, dry powder samples, PAX8 inhibitor project, dose response (AID 743044); assay type: functional, cell-based
[19] = Reduced DLD-1 viability, concentration-response, CellTiter-Glo luminescence (AID 1117352); assay type: functional
[20] = cytotoxicity toward HT-29 cells – cell-based, CellTiter-Glo luminescence, IC50, dose response (AID 1117330); assay type: functional
[21] = SNU-C1 cell viability reduction, dose response, CellTiter-Glo luminescence (AID 1117323); assay type: functional, cell-based
[22] = cytotoxicity toward Colo320 cells – cell-based, CellTiter-Glo luminescence, IC50, dose response (AID 1117334); assay type: functional; conditions: COLO 320
[23] = RKO cell viability reduction, dose response, CellTiter-Glo luminescence (AID 1117322); assay type: functional
[24] = cytotoxicity toward HCT116 cells – cell-based, CellTiter-Glo luminescence, IC50, dose response (AID 1117332); assay type: functional; conditions: HCT-116
[25] = CellTiter-Glo luminescence survival assay, SW480 colon tumor line, concentration-response curve, half-maximal inhibitory concentration (AID 1117338); assay type: functional

Sequence of Kallikrein-7 (P49862 whole entry): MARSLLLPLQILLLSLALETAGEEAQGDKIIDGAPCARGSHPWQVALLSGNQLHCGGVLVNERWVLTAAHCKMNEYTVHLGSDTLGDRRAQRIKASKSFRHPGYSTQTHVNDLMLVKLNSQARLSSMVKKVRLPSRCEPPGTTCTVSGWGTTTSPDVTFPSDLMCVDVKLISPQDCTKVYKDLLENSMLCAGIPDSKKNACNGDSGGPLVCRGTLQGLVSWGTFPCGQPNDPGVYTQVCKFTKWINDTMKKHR

Cc1ccc2nc(NC(=O)c3ccc4ncsc4c3)sc2c1
inactive: EC50 (Kallikrein-7) 20.8 µM

CC1=C(C(=O)OCc2ccc([N+](=O)[O-])cc2)N2C(=O)C(NC(=O)Cc3ccccc3)C2SC1 (centres undefined)
inactive: IC50 [1] 30.8 µM | IC50 [2] > 122 µM

CN(C)c1ccc(C=c2c3ccccc3n3c2c2c([n+]3C)CCCC2)cc1
inactive: IC50 [7] > 80 µM | IC50 [8] 71.1 µM | EC50 (cells) > 29.9 µM
active: CC50 [3] 16.9 µM | AC50 [4] 0.914 µM | AC50 [5] 7.63 µM | IC50 (Nonstructural protein 1) 11 µM | IC50 [6] 38.3 µM | IC50 (Galanin receptor type 3) 1.31 µM

COc1ccc(CNC(=O)c2cccc3c(-c4cccnc4)coc23)cc1OC
active: AC50 [9] 0.9 µM | AC50 [10] 2.29 µM | IC50 [11] 1.47 µM | IC50 (Galanin receptor type 3) 0.126 µM | AC50 [12] 1.66 µM
inactive: EC50 (cells) > 29.9 µM

CCN1CCN(Cc2ccc(NC(=O)c3cc(NC(=O)c4cc5cccc(OC)c5o4)cc(OC)c3)cc2C(F)(F)F)CC1
active: AC50 [9] 9.77 µM | AC50 [13] 8.76 µM | AC50 [14] 4.28 µM | AC50 [15] 12.1 µM
inactive: EC50 (Melanocortin receptor 4) > 89.2 µM

COc1ccc(S(=O)(=O)Nc2ccc3c(c2)C(=O)N([C@H](C)CO)C[C@H](C)[C@H](CN(C)Cc2ccc(C(F)(F)F)cc2)OCCCC[C@H](C)O3)cc1
active: AC50 (Paired box protein Pax-8) 9.51 µM | AC50 [16] 50.7 µM | AC50 [17] 31.6 µM | AC50 [18] 22.9 µM

O=C(O)c1ccccc1OP(=O)(O)O [FOSFOSAL]
inactive: IC50 [19] > 20 µM | IC50 [20] > 20 µM | IC50 [21] > 20 µM | IC50 [22] > 20 µM | IC50 [23] > 20 µM | IC50 [24] > 20 µM | IC50 [25] > 20 µM
